Results on two substances are retold here after PMC5068570 (Journal of the American Chemical Society, 2016).

The target in the assay is T1, Robo1 (Roundabout receptor 1; Robo1-GFP) (Homo sapiens, UniProt Q9Y6N7).
T1 sequence (Q9Y6N7 60-265 limits assumed): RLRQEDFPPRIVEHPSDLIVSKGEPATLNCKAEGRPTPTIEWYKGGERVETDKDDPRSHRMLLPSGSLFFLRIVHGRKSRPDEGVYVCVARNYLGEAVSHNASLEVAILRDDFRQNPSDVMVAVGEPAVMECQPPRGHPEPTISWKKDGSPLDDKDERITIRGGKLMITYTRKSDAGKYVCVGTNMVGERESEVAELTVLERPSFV
The assay is described as follows: SPR, Biacore T100, Robo1 immobilised on CM5. In kind it is binding. To be noted: HBS-EP pH 7.4, 150 mM NaCl, 25 °C; Langmuir 1:1 fit. Background: Surface plasmon resonance follows binding to a sensor surface in real time, without labels.

In general, Kd refers to the concentration at which binding is half-saturated. As to “GlcA-GlcNS6S-IdoA-GlcNS-IdoA2S-GlcNS6S-IdoA-GlcNAc6S [compound 1]”, binding was put at a Kd of 4.8 µM. This lies in the single-digit micromolar range.
The value for IdoA-GlcNS6S-IdoA-GlcNS6S [compound 19] was approximately 20 µM.
